Source: US20230389542A1, “USE OF [(1,5-DIPHENYL-1H-PYRAZOL-3-YL)OXY] ACETIC ACID DERIVATIVES AND THEIR SALTS AND COMPOSITIONS CONTAINING THEM, FOR REDUCING PHYTOTOXIC EFFECTS OF AGROCHEMICALS, IN PARTICULAR OF HERBICIDES, IN USEFUL PLANTS AND CROP PLANTS” (BAYER AKTIENGESELLSCHAFT, priority 2020, published 2023)
Several values for one entry are separate records, joined by “and”; a condition that tells them apart may be missing. Equal values may be shown once.

Tests used:
Type in all cases: in vivo
[1] = test system: summer wheat (TRZAS; cv. Triso); assay: Absolute action: reduction of damage by mesosulfuron-methyl on summer wheat, greenhouse post-emergence; set-up: key to Absolute reduction in damage (difference): percentage points of visual damage (0-100% scale vs untreated)
Procedure: (§1) 2.1 Absolute Action of Selected Compounds of the Invention Using the Example of Reduction of Damage by Mesosulfuron-Methyl on Summer Wheat (TRZAS) The seeds of the crop plants to be treated are laid out in sandy loam in wood fiber or plastic pots (diameter ˜4 cm), covered with soil and grown in a greenhouse under good conditions for germination and growth. The trial plants were treated at the early leaf stage (BBCH10-BBCH12). In the course of this, the inventive compounds of the general formula (D formulated in the form of wettable powders (WP) were sprayed onto the above-ground parts of the plants as an aqueous suspension with a water application rate corresponding to 800 l/ha with addition of wetting agent (e.g. 0.2% agrotin) in the specified dose. This was followed by the application of the herbicide. For this purpose, mesosulfuron-methyl, formulated in the form of water-dispersible granules (WG), was sprayed onto the above-ground parts of the plants in the form of an aqueous dispersion with a water application rate corresponding to 800 l/ha with addition of wetting agent (e.g. 0.2% agrotin) in a dose of 20 g/ha. The dose of the herbicide was chosen here such that it causes visually apparent damage (min. 30%, max. 75%) compared to untreated crop plants at the evaluation time on a control group of crop plants without safener treatment that were included in the same trial. After application, the plants were cultivated under good growth conditions in a greenhouse. The damage was visually assessed 14-21 days after application. The damage effect was assessed visually on a scale of 0-100% by comparison with untreated control plants, and averaged over 2-3 repeats per treatment. Examples: • 0%=no noticeable effect compared to the untreated plant • 20%=the treated plant population has 20% damage compared to the untreated control population (e.g. growth height, leaf damage, etc.) • 100%=treated plants completely damaged/killed.

[2] = test system: summer barley (HORVS; cv. Montoya); assay: Absolute action: reduction of damage by mesosulfuron-methyl on summer barley, greenhouse post-emergence; set-up: key to Absolute reduction in damage (difference): difference in % damage (0-100% visual scale vs untreated control)
Procedure: as §1, with “2.2” for “2.1”, “Barley (HORVS)” for “Wheat (TRZAS)”, “(I)” for “(D”

[3] = test system: summer wheat (TRZAS; cv. Triso); assay: Relative action (efficacy code): reduction of damage by mesosulfuron-methyl on summer wheat; set-up: key: 0: no reduction in damage (appearance corresponding to the herbicide control); 1: slight reduction in damage; 2: distinct reduction in damage; 3: significant reduction in damage; 4: complete reduction in damage (appearance corresponding to the untreated control); conditions: visual, 9-13 days after application
Procedure: 2.3 Relative Action of Selected Compounds of the Invention Using the Example of Reduction of Damage by Mesosulfuron-Methyl on Summer Wheat (TRZAS) The seeds of the crop plants to be treated are laid out in sandy loam in plastic pots (diameter μ4 cm), covered with soil and grown in a greenhouse under good conditions for germination and growth. The trial plants were treated at the early leaf stage (BBCH10-BBCH12). In the course of this, the inventive compounds of the general formula (I) formulated in the form of wettable powders (WP) were sprayed onto the above-ground parts of the plants as an aqueous suspension with a water application rate corresponding to 800 l/ha with addition of wetting agent (e.g. 0.2% Genapol-LRO or 0.2% Mero) in the specified dose. This was followed by the application of the herbicide. For this purpose, mesosulfuron-methyl, formulated in the form of water-dispersible granules (WG), was sprayed onto the above-ground parts of the plants in the form of an aqueous dispersion with a water application rate corresponding to 800 l/ha with addition of wetting agent (e.g. 0.2% Genapol-LRO or 1 l/ha Biopower) in a dose of 40-60 g/ha. The dose of the herbicide was chosen here such that it causes visually apparent damage (min. 30%, max. 75%) compared to untreated crop plants at the evaluation time on a control group of crop plants without safener treatment that were included in the same trial. After application, the plants were cultivated under good growth conditions in a greenhouse. 9-13 days after application, the efficacy of the test compounds was assessed visually. For this purpose, the appearance of the plants treated with the test compound and herbicide was compared to the corresponding herbicide controls (without safener; with clearly visible damage) and the untreated controls (without damage). The damage-reducing effect of the test compounds was expressed here in graded efficacy codes according to the following scheme: • 0: no reduction in damage (appearance corresponding to the herbicide control) • 1: slight reduction in damage • 2: distinct reduction in damage • 3: significant reduction in damage • 4: complete reduction in damage (appearance corresponding to the untreated control) The trials show clear efficacy of the inventive compounds selected by way of example with regard to the reduction in damage to the summer wheat crop plant (TRZAS; cv. Triso) caused by the herbicide mesosulfuron-methyl: […]

[4] = safener 125 g/ha + mesosulfuron-methyl 20 g/ha
[5] = safener 125 g/ha + mesosulfuron-methyl 20 g/ha, visual, 14-21 days after application
[6] = safener 500 g/ha + mesosulfuron-methyl 20 g/ha
[7] = safener 500 g/ha + mesosulfuron-methyl 20 g/ha, visual, 14-21 days after application
[8] = safener 100 g/ha + mesosulfuron-methyl 40-60 g/ha
[9] = safener 500 g/ha + mesosulfuron-methyl 40-60 g/ha
[10] = mesosulfuron-methyl 20 g/ha alone (no safener), visual, 14-21 days after application, scale 0-100%

| Structure (SMILES) | Absolute reduction in damage (difference) [1, 4] | Herbicide damage with compound of the formula (I) [1, 5] [%] | Absolute reduction in damage (difference) [1, 6] | Herbicide damage with compound of the formula (I) [1, 7] [%] | also measured |
| --- | --- | --- | --- | --- | --- |
| O=C(O)COc1cc(-c2ccccc2)n(-c2ccc(Cl)cc2)n1 [I.3-7] | 26 | 37 |  |  |  |
| COc1ccccc1-n1nc(OCC(=O)O)cc1-c1ccccc1 [I.3-20] |  |  | 36 | 17 |  |
| CCOC(=O)COc1cc(-c2ccc(F)cc2)n(-c2ccccc2OC)n1 [I.11-20] | 46 | 7 | 46 | 7 |  |
| CCOC(=O)COc1cc(-c2ccc(F)cc2)n(-c2ccc(F)cc2F)n1 [I.11-38] | 43 | 10 | 43 | 10 | Absolute reduction in damage (difference) [2, 4]: 23; Herbicide damage with compound of the formula (I) [2, 5]: 37%; Absolute reduction in damage (difference) [2, 6]: 33; Herbicide damage with compound of the formula (I) [2, 7]: 27% |
| O=C(O)COc1cc(-c2ccc(F)cc2)n(-c2ccc(F)cc2)n1 [I.12-4] |  |  | 46 | 7 | Absolute reduction in damage (difference) [2, 6]: 27; Herbicide damage with compound of the formula (I) [2, 7]: 33% |
| CCOC(=O)COc1cc(-c2ccc(Cl)cc2)n(-c2ccc(Cl)cc2F)n1 [I.20-49] |  |  |  |  | Efficacy of the safener (efficacy code) [3, 8]: 3; Efficacy of the safener (efficacy code) [3, 9]: 3 |
| COc1ccccc1-n1nc(OCC(=O)O)cc1-c1ccc(Cl)cc1 [I.21-20] | 30 | 23 | 36 | 17 |  |
| O=C(O)COc1cc(-c2ccc(Cl)cc2)n(-c2ccc(F)cc2F)n1 [I.21-38] | 46 | 7 | 50 | 3 | Absolute reduction in damage (difference) [2, 4]: 33; Herbicide damage with compound of the formula (I) [2, 5]: 27%; Absolute reduction in damage (difference) [2, 6]: 33; Herbicide damage with compound of the formula (I) [2, 7]: 27% |
| CCOC(=O)COc1cc(-c2ccc(F)cc2F)n(-c2ccccc2)n1 [I.41-1] | 53 | 0 |  |  |  |
| CCOC(=O)COc1cc(-c2ccc(F)cc2F)n(-c2ccc(F)cc2)n1 [I.41-4] | 40 | 13 |  |  | Absolute reduction in damage (difference) [2, 4]: 23; Herbicide damage with compound of the formula (I) [2, 5]: 37% |
| CCOC(=O)COc1cc(-c2ccc(F)cc2F)n(-c2ccccc2OC)n1 [I.41-20] | 36 | 17 | 43 | 10 |  |
| CCOC(=O)COc1cc(-c2ccc(F)cc2F)n(-c2ccc(F)cc2F)n1 [I.41-38] |  |  | 40 | 13 | Absolute reduction in damage (difference) [2, 6]: 33; Herbicide damage with compound of the formula (I) [2, 7]: 27% |
| COc1ccccc1-n1nc(OCC(=O)O)cc1-c1ccc(F)cc1F [I.42-20] | 40 | 13 |  |  |  |
| O=C(O)COc1cc(-c2ccc(F)cc2F)n(-c2ccc(F)cc2F)n1 [I.42-38] | 33 | 20 |  |  | Absolute reduction in damage (difference) [2, 4]: 23; Herbicide damage with compound of the formula (I) [2, 5]: 37% |
| CCOC(=O)COc1cc(-c2ccc(Cl)cc2F)n(-c2ccc(Cl)cc2)n1 [I.47-7] |  |  |  |  | Efficacy of the safener (efficacy code) [3, 8]: 2; Efficacy of the safener (efficacy code) [3, 9]: 2 |
| O=C(O)COc1cc(-c2ccc(Cl)cc2F)n(-c2ccc(F)cc2F)n1 [I.48-38] |  |  |  |  | Efficacy of the safener (efficacy code) [3, 8]: 2; Efficacy of the safener (efficacy code) [3, 9]: 2 |
| COC(=O)c1ccc(CNS(C)(=O)=O)cc1S(=O)(=O)NC(=O)Nc1nc(OC)cc(OC)n1 [mesosulfuron-methyl, reference compound] |  |  |  |  | Herbicide damage without compound of the formula (I) [1, 10]: 53% and 63%; Herbicide damage without compound of the formula (I) [2, 10]: 60% |
